# In paper PMC8608343 (PLoS ONE, 2021):
# Experiments:
# Leishmania donovani [1] = details: cited from earlier work
# [2] = system: Leishmania donovani amastigotes in RAW macrophage cells; assay: Antileishmanial activity against macrophage-amastigotes (MTT assay); assay type: cell-based; details: for IC50: Leishmania donovani, Macrophage, amastigotes in RAW macrophages, MTT, read-out: IC50 (μg/ml) ±SD amastigote; for Therapeutic Index (TC50/IC50) amastigotes: TC50 RAW / IC50 amastigote
# Description: The RAW macrophage cells were infected with promastigotes at a density of 1:10 ratio, respectively for 12 hrs and the non-phagocytosed promastigotes and media removed by aspiration. The RAW macrophages cells containing the internalized amastigote cells were treated with the compounds to test for their growth inhibitory potentials as previously described. The 3-(4,5-Dimethylthiazol-2-yl)-2,5-diphenyltetrazolium bromide (MTT) assay was also used to determine the parasite viability. […] was measured with a Varioskan Lux Elisa plate reader at a wavelength of 570 nm.
# [3] = system: Leishmania donovani promastigotes; assay: Morphological and mitochondrion effects by fluorescence microscopy (DAPI, MitoTracker); assay type: cell-based
# Description: Their mitochondrial integrity were analyzed using a slightly modified DAPI and Mitotracker dye protocol as described by Amisigo and colleagues.
# [4] = system: Leishmania donovani promastigotes; assay: Growth kinetics and cytocidal/cytostatic (growth reversibility) assay; assay type: cell-based; details: 1 μg/ml, 120 hrs treatment, then 96 hrs in fresh media
# Description: The compounds (at 1 μg/ml) were tested for their effects on the growth kinetic pattern against the promastigotes of L. donovani. The parasite cells (2 x 10^5 cells/ml) were incubated at 25° C in the presence of the test compounds in M199 supplemented with 10% FBS. Amphotericin B treated parasites (0–50 μg/ml) were used as the positive control while the untreated promastigotes in medium alone served as the negative control. Viable cells were counted every 24 hrs for a total of 120 hrs as indicated in previous studies.
# The cytocidal/cytostatic effect of the test compounds were assessed by analyzing the treated and untreated parasites after 120 hrs of incubation. Cells were washed twice with fresh M199, resuspended in complete M199 media and incubated further for 96 hrs. The viable cells were then counted microscopically.
# [5] = system: Leishmania donovani promastigotes; assay: Externalization of phosphatidylserine, Annexin V-FITC / PI flow cytometry; assay type: cell-based; details: 2x IC50, 24 hrs; for effect on externalization of phosphatidylserine (apoptotic potential): p-value = 0.9926
# Description: A double staining of treated/ untreated promastigotes of Leishmania donovani (2 x 10^5 cells/ml) with Annexin V-FITC and Propidium Iodide (PI) was done to determine the apoptotic and necrotic effects of the some of the established cytocidal compounds amongst the eighteen MMV compounds studied. Treatment was set at 2x IC50 concentrations of the respective test compounds against a negative control of untreated promastigote cells in a 24 hrs incubation period. The cells were then prepared using the Annexin V-FITC apoptosis detection kit following the Sigma protocol (Catalog Number: APOAF). Further treatment and analysis of cells was done as shown previously.
# [6] = system: RAW 264.7 murine macrophage cell line; assay: Cytotoxicity against mammalian RAW macrophage cell line (MTT assay); details: 48 hrs, 50% cytotoxic concentration
# Description: Here, amphotericin B was used as a positive control and the negative control was untreated RAW cell line.
# [7] = system: Leishmania donovani promastigotes; assay: Cell cycle analysis by flow cytometry; assay type: cell-based; details: 2x IC50, 24 hrs, versus untreated
# Description: The analysis was done using the protocol as designed in the Guava cell cycle reagent manual (catalog No. 4500–0220). […] Both treated and untreated Leishmania cells were incubated for 24 hrs, samples read using a flow cytometer (BD LSR Fortessa X-20 analyzer BD Biosciences), and the respective cell counts analyzed in the G0/G1, S and G2/M Phases. Data generated was further analyzed using the FlowJo V10 software.
# [8] = system: Leishmania donovani promastigotes; assay: Antileishmanial activity against promastigotes (MTT assay); assay type: cell-based; details: for IC50: Leishmania donovani, 96 hrs at 25° C, MTT, mean of three experiments, read-out: IC50 (μg/ml) ±SD promastigote; for Therapeutic Index (TC50/IC50) promastigotes: TC50 RAW / IC50 promastigote
# Description: Amphotericin B was used as a positive control. The 3-(4,5-Dimethylthiazol-2-yl)-2,5-diphenyltetrazolium bromide (MTT) assay was used to determine the parasite viability as previously described.
# O+ human red blood cells = assay: Haemolytic potential; details: 2% haematocrit, up to 100 μg/ml
# Description: The compounds were tested against the O^+ human red blood cells (obtained from the Malaria laboratory of WACCBIP) at a density of 2% haematocrit for their ability to lyse erythrocytes upon incubation. Here, a concentration of up to 100 μg/ml of compounds was used, and the 50% haemolytic concentration (HC50) of the compounds were determined by analysis of dose-response curves as described.
# [9] = system: Leishmania donovani promastigotes; assay: ROS generation in treated promastigotes (H2DCFDA); assay type: cell-based; details: 100, 50 or 25 μM, 72 hrs
# Description: The degree of reactive oxygen species (ROS) production in treated promastigote and amastigote cells of L. donovani were assessed using the H2DCFDA (2’,7’-dichlorodihydrofluorescein diacetate) rich fluorescent dye (MAK145 Sigma-Aldrich) ROS detection kit. […] Amoxicillin was used as a positive control for pro-oxidative generation while Vitamin C was used as a positive control for anti-oxidative potential. The treated and untreated cells were then suspended in PBS, washed, and resuspended in PBS, then incubated with the ROS detection master mix for 1 hr as instructed by the protocol. The cells were analyzed for intracellular ROS generation by measuring the fluorescence intensity which is proportional to the ROS production level using the Varioskan Lux Elisa microplate reader (Thermo Fischer Scientific, USA) at a wavelength of 605 nm.
# Leishmania donovani [10] = system: Leishmania donovani; set-up: method as in PMID 33268145; details: dosed at 50 mg/kg, mouse model of visceral leishmaniasis; cited from earlier work
SMILES,efficacy among water-soluble ferrocenylquinoline derivatives (Leishmania donovani [1]),IC50 [2] [µg/mL],Therapeutic Index (TC50/IC50) amastigotes [2],"cells with lost kinetoplast DNA and enlarged nuclear DNA ([3]; 2x IC50, 24 hrs) [%]","morphological / mitochondrial changes after 72 hrs ([3]; 2x IC50, 72 hrs)",cytocidal/cytostatic effect upon drug withdrawal [4],more necrotic cells compared to negative control [5],effect on externalization of phosphatidylserine (apoptotic potential) [5],TC50 (μg/ml) ±SD RAW [6] [µg/mL],increase in parasites at the S phase [7] [fold],IC50 [8] [µg/mL],Therapeutic Index (TC50/IC50) promastigotes [8],HC50 (O+ human red blood cells) [µg/mL],"morphological / mitochondrial changes after 24 hrs ([3]; 2x IC50, 24 hrs)","nuclear/ kinetoplast DNA degenerated ([3]; 2x IC50, 72 hrs) [%]",ROS generation effect in promastigotes [9],parasite burden reduction (Leishmania donovani [10]) [%]
C1CCCC1.CN(CCn1cc(C2CCCC2)nn1)c1ccnc2cc(Cl)ccc12.I.[Fe] [CQFC1],most efficacious of the molecules,–,–,–,–,–,–,–,–,–,–,–,–,–,–,–,–
"CC1COC(Cn2cncn2)(c2ccc(Oc3ccc(Cl)cc3)cc2Cl)O1 (stereo not shown) [Compound C06A, Difenoconazole, reference compound]",–,4.6 ± 0.004,21.74,60,parasite clearance in most fields,cytocidal effect,~17%,none of the compounds showed any significant effects,>100,1.5,0.21 ± 0.008,476.19,>100,–,–,–,–
Cc1noc(C)c1COc1cccc(C(=O)N=c2[nH]cccc2C)c1 [Compound D05A],–,3.8 ± 0.03,26.32,–,most of the fields had total parasite clearance,cytocidal effect,about 6.5%,none of the compounds showed any significant effects,>100,1.5,0.2 ± 0.02,500,>100,did not show any obvious abnormalities,90,anti-oxidative effect,–
O=[N+]([O-])c1cn2c(n1)O[C@@H](COc1ccc(-c3ccc(F)cc3)nc1)CC2 [DNDI-0690],–,–,–,–,–,–,–,–,–,–,–,–,–,–,–,–,96
